# Measurements reported in patent US7087631B2, “Aryltetrazole compounds, and compositions thereof” (Inotek Pharmaceuticals Corporation, priority 2002, dated 2006).
# Experiments:
# [1] = system: thioacetamide model of hepatic failure; assay: Toxic liver injury model (thioacetamide model of hepatic failure), serum AST; format: in vivo; conditions: mice; for Percent Inhibition of Serum AST Levels: thioacetamide 400 mg/kg i.p., mean ±SEM (n=7-10)
# Description: Illustrative 5-Aryltetrazole Compounds exert hepatoprotective effects in a thioacetamide model of hepatic failure. […] […] Results are expressed as percent inhibtion, mean ±SEM (n=7-10). Studies were conducted as described in Biochim. Biophys. Acta. 1536(1):21-30 (2001).
# xanthine oxidase = xanthine oxidase (Homo sapiens, UniProt P47989); assay: Xanthine oxidase inhibitory activity, 96 well plate, kinetic reading at 295 nm; format: biochemical
# Sequence of xanthine oxidase (P47989 whole entry, species assumed): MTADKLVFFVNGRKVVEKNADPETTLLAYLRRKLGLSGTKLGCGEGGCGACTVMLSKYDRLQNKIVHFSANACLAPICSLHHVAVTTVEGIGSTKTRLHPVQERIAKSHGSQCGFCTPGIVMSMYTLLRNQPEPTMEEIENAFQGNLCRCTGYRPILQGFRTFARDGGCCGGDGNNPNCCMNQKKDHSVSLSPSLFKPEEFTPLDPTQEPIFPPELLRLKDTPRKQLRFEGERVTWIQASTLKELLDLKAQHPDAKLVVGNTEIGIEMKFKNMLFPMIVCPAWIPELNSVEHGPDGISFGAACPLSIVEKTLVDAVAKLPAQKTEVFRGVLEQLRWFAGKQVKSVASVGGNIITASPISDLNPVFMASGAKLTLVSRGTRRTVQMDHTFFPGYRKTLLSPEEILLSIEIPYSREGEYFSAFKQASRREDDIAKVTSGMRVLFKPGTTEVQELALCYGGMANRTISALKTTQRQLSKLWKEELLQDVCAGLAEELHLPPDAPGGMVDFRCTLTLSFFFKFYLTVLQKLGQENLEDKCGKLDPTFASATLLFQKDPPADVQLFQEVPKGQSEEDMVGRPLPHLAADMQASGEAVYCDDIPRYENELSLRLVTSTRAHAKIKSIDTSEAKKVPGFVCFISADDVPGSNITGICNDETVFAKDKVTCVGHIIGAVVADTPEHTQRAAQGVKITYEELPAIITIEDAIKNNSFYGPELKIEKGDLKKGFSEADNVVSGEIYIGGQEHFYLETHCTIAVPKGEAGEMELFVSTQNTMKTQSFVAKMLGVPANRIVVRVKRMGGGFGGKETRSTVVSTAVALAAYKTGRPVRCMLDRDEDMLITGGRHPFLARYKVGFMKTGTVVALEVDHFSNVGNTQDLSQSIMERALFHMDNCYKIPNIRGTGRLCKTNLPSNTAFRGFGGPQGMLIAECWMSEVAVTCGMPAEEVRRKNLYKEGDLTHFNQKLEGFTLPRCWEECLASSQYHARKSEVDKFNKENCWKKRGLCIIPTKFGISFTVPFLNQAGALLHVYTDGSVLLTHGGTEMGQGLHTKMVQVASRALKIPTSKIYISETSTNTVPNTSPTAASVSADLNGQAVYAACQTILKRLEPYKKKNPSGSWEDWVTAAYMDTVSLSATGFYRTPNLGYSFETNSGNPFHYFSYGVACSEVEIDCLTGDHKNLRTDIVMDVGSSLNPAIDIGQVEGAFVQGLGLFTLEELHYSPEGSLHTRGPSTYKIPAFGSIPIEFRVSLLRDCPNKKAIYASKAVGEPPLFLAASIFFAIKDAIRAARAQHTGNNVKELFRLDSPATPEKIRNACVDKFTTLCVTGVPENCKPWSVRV
# [2] = compound concentration 0.1 μM, 0.1 µM
Structure (SMILES),PERCENT XANTHINE OXIDASE INHIBITION (xanthine oxidase; compound concentration 0.1 μM),PERCENT XANTHINE OXIDASE INHIBITION (xanthine oxidase; compound concentration 1 μM),PERCENT XANTHINE OXIDASE INHIBITION (xanthine oxidase; compound concentration 100 μM),other results
O=C(Nc1ccc(Cl)cc1)c1ccc(-c2nnn[nH]2)cc1 [IX],74%,98%,–,serum AST levels (result in words) ([1]; summary of the table): inhibit serum AST levels; Percent Inhibition of Serum AST Levels ([1]; single oral dose 10 mg/kg): 31 ± 1%; PERCENT XANTHINE OXIDASE INHIBITION (xanthine oxidase; compound concentration 0.03 μM): 46%
CCc1ccc(NC(=O)c2ccc(-c3nnn[nH]3)cc2)cc1 [JM],38%,89%,–,Percent Inhibition of Serum AST Levels ([1]; single oral dose 3 mg/kg): 12 ± 7%; Percent Inhibition of Serum AST Levels ([1]; single oral dose 10 mg/kg): 31 ± 7%; PERCENT XANTHINE OXIDASE INHIBITION (xanthine oxidase; compound concentration 0.03 μM): 16%
Cc1ccc(NC(=O)c2ccc(-c3nnn[nH]3)cc2)cc1 [Compound JN],41%,88%,–,Percent Inhibition of Serum AST Levels ([1]; single oral dose 3 mg/kg): 11 ± 7%; Percent Inhibition of Serum AST Levels ([1]; single oral dose 10 mg/kg): 31 ± 7%; PERCENT XANTHINE OXIDASE INHIBITION (xanthine oxidase; compound concentration 0.03 μM): 20%
O=C(O)Cc1cccc(NC(=O)c2ccc(-c3nnn[nH]3)cc2)c1 [ID],37%,72%,–,PERCENT XANTHINE OXIDASE INHIBITION (xanthine oxidase; compound concentration 0.03 μM): 13%
c1cc(-c2nnn[nH]2)ccc1OCC1CCCCC1 [IN],21%,68%,–,xanthine oxidase activity (result in words) (xanthine oxidase; summary of the table): inhibit xanthine oxidase activity
O=C(O)c1ccc(-c2nnn[nH]2)cc1 [FY],–,11%,91%,PERCENT XANTHINE OXIDASE INHIBITION (xanthine oxidase; compound concentration 10 μM): 56%
CC(=O)Nc1ccc(-c2nn[nH]n2)cc1 [Compound FR],–,–,40%,–
COC(=O)c1ccc(-c2nnn[nH]2)cc1 [FW],–,39%,100%,PERCENT XANTHINE OXIDASE INHIBITION (xanthine oxidase; compound concentration 10 μM): 82%
O=C(Nc1ccc(Cl)cc1Cl)c1ccc(-c2nnn[nH]2)cc1 [IY],47%,86%,–,PERCENT XANTHINE OXIDASE INHIBITION (xanthine oxidase; compound concentration 0.03 μM): 26%
O=S(=O)(NC1CCCCC1)c1ccc(-c2nnn[nH]2)cc1 [HV],–,0%,–,–
CCOc1ccc(-c2nnn[nH]2)cc1 [HD],–,–,60%,–
c1ccc(-c2nnn[nH]2)cc1 [FF],–,–,10%,–
O=C(OCCN1C(=O)CCC1=O)c1ccc(-c2nnn[nH]2)cc1 [GW],9%,39%,–,PERCENT XANTHINE OXIDASE INHIBITION (xanthine oxidase; compound concentration 0.01 μM): 5%
O=C(OCc1cccnc1)c1ccc(-c2nnn[nH]2)cc1 [HO],95%,98%,–,PERCENT XANTHINE OXIDASE INHIBITION (xanthine oxidase; compound concentration 0.05 μM): 46%
O=C(OCC(F)(F)C(F)F)c1ccc(-c2nnn[nH]2)cc1 [GP],65%,92%,–,PERCENT XANTHINE OXIDASE INHIBITION (xanthine oxidase; compound concentration 0.01 μM): 9%
O=C(OCCN1CCCC1)c1ccc(-c2nnn[nH]2)cc1 [GL],–,4%,–,–
O=C(Nc1ccccc1)c1ccc(-c2nnn[nH]2)cc1Cl [JJ],–,0%,–,–
O=C(OCC(C(F)(F)F)C(F)(F)F)c1ccc(-c2nnn[nH]2)cc1 [GS],68%,95%,–,PERCENT XANTHINE OXIDASE INHIBITION (xanthine oxidase; compound concentration 0.01 μM): 13%
CCCCOc1ccc(NC(=O)c2ccc(-c3nnn[nH]3)cc2)cc1 [IQ],33%,64%,–,PERCENT XANTHINE OXIDASE INHIBITION (xanthine oxidase; compound concentration 0.03 μM): 36%
CC(C)OC(=O)c1ccc(-c2nnn[nH]2)cc1 [FZ],–,88%,100%,PERCENT XANTHINE OXIDASE INHIBITION (xanthine oxidase; compound concentration 10 μM): 97%

Structure (SMILES),PERCENT XANTHINE OXIDASE INHIBITION (xanthine oxidase; compound concentration 0.1 μM),PERCENT XANTHINE OXIDASE INHIBITION (xanthine oxidase; compound concentration 1 μM),PERCENT XANTHINE OXIDASE INHIBITION (xanthine oxidase; compound concentration 100 μM),other results
O=C(NCC1CCCCC1)c1ccc(-c2nnn[nH]2)cc1 [HS],16%,55%,–,PERCENT XANTHINE OXIDASE INHIBITION (xanthine oxidase; compound concentration 0.03 μM): 8%
FC(F)(F)Oc1ccc(-c2nnn[nH]2)cc1 [FL],–,–,55%,PERCENT XANTHINE OXIDASE INHIBITION (xanthine oxidase; compound concentration 10 μM): 14%
O=C(OC1CCC2CCCCC2C1)c1ccc(-c2nnn[nH]2)cc1 (stereo not shown) [GY],11%,76%,–,PERCENT XANTHINE OXIDASE INHIBITION (xanthine oxidase; compound concentration 0.01 μM): 19%
Nc1ccc(-c2nnn[nH]2)cc1 [FO],–,–,30%,PERCENT XANTHINE OXIDASE INHIBITION (xanthine oxidase; compound concentration 10 μM): 3%
O=C(Nc1ccccc1F)c1ccc(-c2nnn[nH]2)cc1 [HY],45%,86%,–,PERCENT XANTHINE OXIDASE INHIBITION (xanthine oxidase; compound concentration 0.03 μM): 20%
O=C(OC(C1CCCCC1)C1CCCCC1)c1ccc(-c2nnn[nH]2)cc1 [GZ],–,8%,–,–
CN(C(=O)c1ccc(-c2nnn[nH]2)cc1)c1ccccc1 [IM],–,0%,–,–
CC(C)COc1ccc(-c2nnn[nH]2)cc1C#N [Compound JE],32%,82%,–,PERCENT XANTHINE OXIDASE INHIBITION (xanthine oxidase; compound concentration 0.03 μM): 12%
O=C(O)c1cccc(NC(=O)c2ccc(-c3nnn[nH]3)cc2)c1 [IB],64%,94%,–,PERCENT XANTHINE OXIDASE INHIBITION (xanthine oxidase; compound concentration 0.03 μM): 38%
N#Cc1cc(-c2nnn[nH]2)ccc1C(=O)Nc1nccs1 [JI],30%,79%,–,PERCENT XANTHINE OXIDASE INHIBITION (xanthine oxidase; compound concentration 0.03 μM): 19%
Brc1ccc(-c2nnn[nH]2)cc1 [FI],–,–,67%,PERCENT XANTHINE OXIDASE INHIBITION (xanthine oxidase; compound concentration 10 μM): 21%
CC(C)COc1ccc(-c2nnn[nH]2)cc1Br [Compound JC],6%,31%,–,–
O=C(OC1CCCCC1)c1ccc(-c2nnn[nH]2)cc1 [GO],18%,82%,–,PERCENT XANTHINE OXIDASE INHIBITION (xanthine oxidase; compound concentration 0.01 μM): 6%
O=C(Nc1ccccc1)Nc1ccc(-c2nnn[nH]2)cc1 [IU],9%,42%,–,PERCENT XANTHINE OXIDASE INHIBITION (xanthine oxidase; compound concentration 0.03 μM): 3%
O=C(OCCc1cccs1)c1ccc(-c2nnn[nH]2)cc1 [HQ],97%,95%,–,PERCENT XANTHINE OXIDASE INHIBITION (xanthine oxidase; compound concentration 0.05 μM): 53%
O=C(Oc1ccccc1)c1ccc(-c2nnn[nH]2)cc1 [GC],97%,100%,–,PERCENT XANTHINE OXIDASE INHIBITION (xanthine oxidase; compound concentration 0.05 μM): 52%
O=C(OC1CCCCC1)c1ccc(-c2nnn[nH]2)cc1 [GH],–,–,–,"PERCENT XANTHINE OXIDASE INHIBITION (xanthine oxidase; compound concentration 0.03 μM): 65%; PERCENT XANTHINE OXIDASE INHIBITION (xanthine oxidase; [2]): 91%; PERCENT XANTHINE OXIDASE INHIBITION (xanthine oxidase; compound concentration 1 μM, 1 µM): 100%"
O=C(Oc1cccc(Br)c1)c1ccc(-c2nnn[nH]2)cc1 [GT],53%,94%,–,PERCENT XANTHINE OXIDASE INHIBITION (xanthine oxidase; compound concentration 0.01 μM): 8%
N#Cc1cc(-c2nnn[nH]2)ccc1C(=O)Nc1cccnc1 [JH],41%,86%,–,PERCENT XANTHINE OXIDASE INHIBITION (xanthine oxidase; compound concentration 0.03 μM): 23%
CNC(=O)Nc1ccc(-c2nnn[nH]2)cc1 [FS],–,–,10%,–

Structure (SMILES),PERCENT XANTHINE OXIDASE INHIBITION (xanthine oxidase; compound concentration 0.1 μM),PERCENT XANTHINE OXIDASE INHIBITION (xanthine oxidase; compound concentration 1 μM),PERCENT XANTHINE OXIDASE INHIBITION (xanthine oxidase; compound concentration 100 μM),other results
Fc1ccc(-c2nnn[nH]2)cc1 [FM],–,–,78%,PERCENT XANTHINE OXIDASE INHIBITION (xanthine oxidase; compound concentration 10 μM): 19%
O=C(NC1CCCCC1)c1ccc(-c2nnn[nH]2)cc1 [HA],10%,61%,–,–
CC(C)COc1ccc(-c2nn[nH]n2)cc1 [Compound IR],47%,88%,–,PERCENT XANTHINE OXIDASE INHIBITION (xanthine oxidase; compound concentration 0.03 μM): 28%
O=S(=O)(NC12CC3CC(CC(C3)C1)C2)c1ccc(-c2nnn[nH]2)cc1 [HU],–,0%,–,–
O=C(OCC1CC1)c1ccc(-c2nnn[nH]2)cc1 [GB],–,82%,100%,PERCENT XANTHINE OXIDASE INHIBITION (xanthine oxidase; compound concentration 10 μM): 97%
Cc1ccc(-c2nnn[nH]2)cc1 [FN],–,–,32%,PERCENT XANTHINE OXIDASE INHIBITION (xanthine oxidase; compound concentration 10 μM): 3%
O=C(Nc1ccc(Cl)c(Cl)c1)c1ccc(-c2nnn[nH]2)cc1 [JL],68%,95%,–,PERCENT XANTHINE OXIDASE INHIBITION (xanthine oxidase; compound concentration 0.03 μM): 34%
Clc1ccc(-c2nnn[nH]2)cc1 [FH],–,–,69%,PERCENT XANTHINE OXIDASE INHIBITION (xanthine oxidase; compound concentration 10 μM): 27%
Clc1cccc(-c2nnn[nH]2)c1 [FG],–,–,34%,–
O=C(OCC(F)(F)F)c1ccc(-c2nnn[nH]2)cc1 [GJ],59%,99%,–,PERCENT XANTHINE OXIDASE INHIBITION (xanthine oxidase; compound concentration 0.01 μM): 12%
O=C(OCc1ccccc1I)c1ccc(-c2nnn[nH]2)cc1 [JQ],–,100%,–,"PERCENT XANTHINE OXIDASE INHIBITION (xanthine oxidase; compound concentration 0.01 μM, 0.01 µM): 18%; PERCENT XANTHINE OXIDASE INHIBITION (xanthine oxidase; [2]): 89%"
c1cncc(-c2cccc(-c3nnn[nH]3)c2)c1 [HJ],–,–,2%,–
O=C(OCc1ccc(Cl)cc1)c1ccc(-c2nnn[nH]2)cc1 [GE],100%,100%,–,PERCENT XANTHINE OXIDASE INHIBITION (xanthine oxidase; compound concentration 0.05 μM): 59%
O=C(OCC(Cl)(Cl)Cl)c1ccc(-c2nnn[nH]2)cc1 [GV],73%,95%,–,PERCENT XANTHINE OXIDASE INHIBITION (xanthine oxidase; compound concentration 0.01 μM): 14%
O=C(OCC12CC3CC(CC(C3)C1)C2)c1ccc(-c2nnn[nH]2)cc1 [GI],95%,100%,–,PERCENT XANTHINE OXIDASE INHIBITION (xanthine oxidase; compound concentration 0.03 μM): 75%
O=C(/C=C/c1ccccc1)Nc1nnn[nH]1 [Compound HN],–,10%,42%,PERCENT XANTHINE OXIDASE INHIBITION (xanthine oxidase; compound concentration 10 μM): 13%
C#CCCCOC(=O)c1ccc(-c2nnn[nH]2)cc1 [GM],28%,76%,–,PERCENT XANTHINE OXIDASE INHIBITION (xanthine oxidase; compound concentration 0.01 μM): 8%
O=C(Oc1cc[n+]([O-])cc1)c1ccc(-c2nnn[nH]2)cc1 [GN],–,9%,–,–
O=C(c1ccc(-c2nnn[nH]2)cc1)N1CCNCC1 [HL],–,–,0%,–
COc1cc(-c2nnn[nH]2)cc(OC)c1OC [HG],–,–,22%,–
